The target in one test is T1, MAPKAPK5 (Homo sapiens, UniProt Q8IW41).
T1 construct: 1 mU MAPKAP-K5
T1 sequence (Q8IW41 1-473): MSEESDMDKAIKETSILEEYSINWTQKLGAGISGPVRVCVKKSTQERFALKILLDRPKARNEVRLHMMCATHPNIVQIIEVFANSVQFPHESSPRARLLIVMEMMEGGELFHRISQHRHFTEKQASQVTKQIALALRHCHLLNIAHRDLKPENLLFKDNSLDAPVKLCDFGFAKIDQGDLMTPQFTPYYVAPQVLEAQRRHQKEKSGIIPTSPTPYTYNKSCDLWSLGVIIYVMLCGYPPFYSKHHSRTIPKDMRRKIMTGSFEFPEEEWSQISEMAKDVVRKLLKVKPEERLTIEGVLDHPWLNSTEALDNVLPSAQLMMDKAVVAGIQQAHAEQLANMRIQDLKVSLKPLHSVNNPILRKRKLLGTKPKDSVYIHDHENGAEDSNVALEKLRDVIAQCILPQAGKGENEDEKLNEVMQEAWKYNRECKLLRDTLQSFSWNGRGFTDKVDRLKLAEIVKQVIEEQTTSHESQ
The test can be described thus: MAPKAP-K5 assay (FlashPlate, 33P-ATP). Type of test: biochemical. Particulars: 0.6 μM ATP, 30 minutes at room temperature. The method, then:
3 μM MAPKAP-K5 peptide substrate

The next test concerns MMP1 expression by SFs. The test can be described thus: 'MMP assay': MMP1 expression by 'complex trigger' activated synovial fibroblasts (MMP1 ELISA). The class given is cell-based, human. Particulars: RASFs, 48 hrs. In general terms: An ELISA detects its analyte on a solid surface through an enzyme-linked reagent.

Some results are limits rather than exact numbers.

A word on the IC50: it is the concentration needed to halve the response being measured. For orientation: EC50 means the midpoint of the concentration-response curve. For `CCN(CC)CCNS(=O)(=O)c1ccc(Nc2ncc(-c3cn[nH]c3)n3ccnc23)cc1` [Compound 69, N-(2-Diethylaminoethyl)-4-[5-(1H-pyrazol-4-yl)imidazo[1,2-a]pyrazin-8-ylamino]benzenesulfonamide], the IC50 on MAPKAPK5 is 0.101 to 0.5 µM. Moreover, the EC50 with MMP1 expression by SFs (Homo sapiens, Fibroblast) was > 1 µM.
The like results for `CN1CCN(c2ccc(Nc3ncc(-c4cscn4)n4ccnc34)cc2)CC1` [Compound 138] were, in that order, > 1 µM and > 1 µM.
The matching figures for `CN(C)C(CNC(=O)c1ccc(Nc2ncc(-c3cc[nH]c(=O)c3)n3ccnc23)cc1)c1cccnc1` (stereo not shown) [Compound 114]: 0.101 to 0.5 µM and > 1 µM.
The matching figures for `CCN(CC)CCNC(=O)c1ccc(Nc2ncc(-c3cn[nH]c3)n3ccnc23)c(F)c1` [Compound 83]: 0.101 to 0.5 µM and > 1 µM.
With `O=C(NCc1ccc(O)cc1)c1ccc(Nc2ncc(-c3cn[nH]c3)n3ccnc23)cc1` [Compound 90, N-(4-Hydroxybenzyl)-4-[5-(1H-pyrazol-4-yl)imidazo[1,2-a]pyrazin-8-ylamino]benzamide], the IC50 against MAPKAPK5 was 0.501 to 1 µM. Further, the 50% effective concentration (EC50) in the test on MMP1 expression by SFs (Homo sapiens, Fibroblast) lay within 0.101 to 0.5 µM.
The like results for `CCN(CC)CCNS(=O)(=O)c1ccc(Nc2ncc(-c3ccc(C(N)=O)cc3)n3ccnc23)cc1` [Compound 98] were, in that order, > 1 µM and 0.501 to 1 µM.
For `CN1CCN(c2ccc(Nc3ncc(-c4ccc(C(N)=O)o4)n4ccnc34)cc2)CC1` [Compound 139, 5-{8-[4-(4-Methyl-piperazin-1-yl)-phenylamino]-imidazo[1,2-a]pyrazin-5-yl}-furan-2-carboxylic acid amide], at MAPKAPK5, the half-maximal inhibitory concentration (IC50) is > 1 µM. Moreover, the concentration giving a half-maximal response (EC50) in the test on MMP1 expression by SFs (Homo sapiens, Fibroblast) was > 1 µM.
For `CN(C)c1ccc(CNC(=O)c2ccc(Nc3ncc(-c4cn[nH]c4)n4ccnc34)cc2)cc1` [Compound 89], on MAPKAPK5, the IC50 was > 1 µM. Also, the EC50 in the test on MMP1 expression by SFs (Homo sapiens, Fibroblast) lay within 0.501 to 1 µM.
Regarding “4-(8-{4-[1-(2,2,2-Trifluoroethyl)piperidin-4-yl]phenylamino}imidazo[1,2-a]pyrazin-5-yl)thiophene-2-carboxylic acid amide [Compound 192]”, at MAPKAPK5, the IC50 was in the range of 0.001 to 0.1 µM. Also, in the test on MMP1 expression by SFs, the EC50 lay within 0.501 to 1 µM.
With `O=C(c1ccc(Nc2ncc(-c3cn[nH]c3)n3ccnc23)cc1)N1CCOCC1` [Compound 45], the IC50 against MAPKAPK5 lay within 0.501 to 1 µM. Also, the EC50 in the test with MMP1 expression by SFs (Homo sapiens, Fibroblast) was > 1 µM.
The like results for `C[C@@H]1CN(c2ccc(Nc3ncc(-c4cc(C(N)=O)co4)n4ccnc34)cc2)[C@@H](C)CN1C` [Compound 187] were, in that order, 0.001 to 0.1 µM and 0.101 to 0.5 µM.
The matching figures for `CN1CCC(COc2ccc(Nc3ncc(-c4ccc(C(N)=O)c(F)c4)n4ccnc34)cc2)CC1` [Compound 159, 2-Fluoro-4-{8-[4-(1-methyl-piperidin-4-ylmethoxy)-phenylamino]-imidazo[1,2-a]pyrazin-5-yl}-benzamide]: > 1 µM and 0.101 to 0.5 µM.
Consider `C[C@@H]1CN(c2ccc(Nc3ncc(-c4ccc(C(N)=O)cc4)n4ccnc34)cc2)C[C@H](C)N1C` [Compound 155], for which, on MAPKAPK5, the IC50 was > 1 µM. For the same molecule, the EC50 in the test on MMP1 expression by SFs (Homo sapiens, Fibroblast) fell in the range of 0.101 to 0.5 µM.
On to `CC(C)N1CCN(c2ccc(Nc3ncc(-c4ccc(C(N)=O)cc4)n4ccnc34)cc2)CC1` [Compound 142], for which the IC50 at MAPKAPK5 is > 1 µM. The EC50 in the test on MMP1 expression by SFs (Homo sapiens, Fibroblast) lay within 0.501 to 1 µM.
The like results for `O=C1NCc2cc(-c3cnc(Nc4cccnc4)c4nccn34)ccc21` [Compound 197] were, in that order, 0.101 to 0.5 µM and 0.501 to 1 µM.
With `NC(=O)c1c(F)cc(-c2cnc(Nc3ccc(N4CCOCC4)cc3)c3nccn23)cc1F` [Compound 165], the IC50 against MAPKAPK5 is > 1 µM. Also, the EC50 in the test with MMP1 expression by SFs (Homo sapiens, Fibroblast) is > 1 µM.
`O=C(NC1CCNC1)c1ccc(Nc2ncc(-c3cn[nH]c3)n3ccnc23)cc1` (stereo not shown) [Compound 55] returned an IC50 against MAPKAPK5 of 0.101 to 0.5 µM. In addition, in the test on MMP1 expression by SFs (Homo sapiens, Fibroblast), the EC50 is > 1 µM.
Molecule `C[C@@H]1CN(C)[C@@H](C)CN1c1ccc(Nc2ncc(-c3ccc(C(N)=O)cc3)n3ccnc23)cc1` [Compound 137] came in with an IC50 on MAPKAPK5 of 0.101 to 0.5 µM. Besides, the EC50 with MMP1 expression by SFs (Homo sapiens, Fibroblast) was in the range of 0.101 to 0.5 µM.
Molecule `Cc1[nH]ncc1-c1cnc(Nc2ccc(N3CCN(C)CC3)cc2)c2nccn12` [Compound 119, (4-(4-Methylpiperazin-1-yl)phenyl)-[5-(5-methyl-1H-pyrazol-4-yl)imidazo[1,2-a]pyrazin-8-yl]amine] came in with an IC50 on MAPKAPK5 of 0.101 to 0.5 µM. In the test on MMP1 expression by SFs (Homo sapiens, Fibroblast), the EC50 is > 1 µM.
The like results for `NC(=O)c1ccc(Nc2ncc(-c3cn[nH]c3)n3ccnc23)cc1` [Compound 11] were, in that order, 0.101 to 0.5 µM and > 1 µM.
The matching figures for `CC(C)N1CCN(c2ccc(Nc3ncc(-c4ccc5c(c4)CNC5=O)n4ccnc34)cn2)CC1` [Compound 210, 5-{8-[6-(4-Isopropyl-piperazin-1-yl)-pyridin-3-ylamino]-imidazo[1,2-a]pyrazin-5-yl}-2,3-dihydro-isoindol-1-one]: 0.001 to 0.1 µM and 0.501 to 1 µM.
The like results for `c1cn2c(-c3cn[nH]c3)cnc(Nc3ccc(OCCN4CCOCC4)cc3)c2n1` [Compound 150, [4-(2-Morpholin-4-yl-ethoxy)-phenyl]-[5-(1H-pyrazol-4-yl)-imidazo[1,2-a]pyrazin-8-yl]-amine] were, in that order, 0.501 to 1 µM and > 1 µM.
In turn, `O=C1NCc2cc(-c3cnc(Nc4ccc(N5CCOCC5)cc4)c4nccn34)sc21` [Compound 198, 2-[8-(4-Morpholin-4-yl-phenylamino)-imidazo[1,2-a]pyrazin-5-yl]-4,5-dihydro-thieno[2,3-c]pyrrol-6-one] gave a half-inhibitory concentration (IC50) against MAPKAPK5 of 0.101 to 0.5 µM. Further, the EC50 in the test with MMP1 expression by SFs (Homo sapiens, Fibroblast) fell in the range of 0.101 to 0.5 µM.
Take `CN1CCN(c2ccc(Nc3ncc(-c4cc(C(N)=O)cs4)n4ccnc34)cc2)CC1` [Compound 145, 5-{8-[4-(4-Methyl-piperazin-1-yl)-phenylamino]-imidazo[1,2-a]pyrazin-5-yl}-thiophene-3-carboxylic acid amide]: the IC50 against MAPKAPK5 is > 1 µM. Moreover, the EC50 with MMP1 expression by SFs (Homo sapiens, Fibroblast) was in the range of 0.501 to 1 µM.
For the molecule `NC(=O)c1ccc(-c2cnc(Nc3ccc(-n4ccnc4)cc3)c3nccn23)cc1` [Compound 167], the IC50 against MAPKAPK5 was > 1 µM. In the test on MMP1 expression by SFs (Homo sapiens, Fibroblast), the EC50 is > 1 µM.
Take `CNC(=O)c1ccc(-c2cnc(Nc3ccc(N4CCN(C)CC4)cc3)c3nccn23)cc1` [Compound 116]: the half-inhibitory concentration (IC50) against MAPKAPK5 was > 1 µM. Moreover, in the test on MMP1 expression by SFs (Homo sapiens, Fibroblast), the EC50 was > 1 µM.
As for `c1cn2c(-c3cn[nH]c3C3CC3)cnc(Nc3ccc(N4CCOCC4)cc3)c2n1` [Compound 160, [5-(5-Cyclopropyl-1H-pyrazol-4-yl)-imidazo[1,2-a]pyrazin-8-yl]-(4-morpholin-4-yl-phenyl)-amine], the IC50 against MAPKAPK5 was in the range of 0.101 to 0.5 µM. Also, the EC50 with MMP1 expression by SFs (Homo sapiens, Fibroblast) was > 1 µM.
The molecule `CN1CCN(c2ccc(Nc3ncc(-c4ccc(C(N)=O)s4)n4ccnc34)cc2)CC1` [Compound 127, (4-(4-Methylpiperazin-1-yl)phenyl)-[5-(2-carboxamido-5-thienyl)imidazo[1,2-a]pyrazin-8-yl]amine] came in with an IC50 at MAPKAPK5 of 0.101 to 0.5 µM. Besides, the concentration for a half-maximal effect (EC50) with MMP1 expression by SFs (Homo sapiens, Fibroblast) is 0.101 to 0.5 µM.
In the case of `c1cn2c(-c3c[nH]cn3)cnc(Nc3ccc(N4CCOCC4)cc3)c2n1` [Compound 163], on MAPKAPK5, the 50% inhibitory concentration (IC50) is > 1 µM. For the same molecule, in the test on MMP1 expression by SFs (Homo sapiens, Fibroblast), the EC50 is > 1 µM.
Molecule `CC(C)N1CCN(c2ccc(Nc3ncc(-c4cc(F)c(C(N)=O)c(F)c4)n4ccnc34)cc2)CC1` [Compound 193] came in with an IC50 at MAPKAPK5 of 0.501 to 1 µM. Also, the EC50 in the test with MMP1 expression by SFs (Homo sapiens, Fibroblast) was in the range of 0.501 to 1 µM.
As to `Cc1[nH]ncc1-c1cnc(Nc2ccc(N3CCOCC3)cc2)c2nccn12` [Compound 176], at MAPKAPK5, the IC50 was in the range of 0.501 to 1 µM. In the test with MMP1 expression by SFs (Homo sapiens, Fibroblast), the EC50 is > 1 µM.
The like results for `NC(=O)c1ccc(-c2cnc(Nc3ccc(OCCN4CCOCC4)cc3)c3nccn23)cc1F` [Compound 146] were, in that order, > 1 µM and 0.501 to 1 µM.
The matching figures for `CN1CCN(c2ccc(Nc3ncc(-c4cn[nH]c4)n4ccnc34)cc2)CC1` [Compound 14]: > 1 µM and > 1 µM.
The matching figures for `Cc1oc(-c2cnc(Nc3ccc(N4CCOCC4)cc3)c3nccn23)cc1C(N)=O` [Compound 188]: > 1 µM and 0.501 to 1 µM.
In the case of `Cn1nnc(-c2ccc(Nc3ncc(-c4cn[nH]c4)n4ccnc34)cc2)n1` [Compound 169, [4-(2-Methyl-2H-tetrazol-5-yl)-phenyl]-[5-(1H-pyrazol-4-yl)-imidazo[1,2-a]pyrazin-8-yl]-amine], the IC50 at MAPKAPK5 was > 1 µM. In addition, in the test on MMP1 expression by SFs (Homo sapiens, Fibroblast), the EC50 is 0.101 to 0.5 µM.
The matching figures for `NC(=O)c1ccc(-c2cnc(Nc3ccc(-c4cccnc4)cc3)c3nccn23)cc1` [Compound 153]: > 1 µM and 0.101 to 0.5 µM.
The like results for `CN1CCN(c2ccc(Nc3ncc(-c4csc(C(N)=O)c4)n4ccnc34)cc2)CC1` [Compound 118] were, in that order, 0.101 to 0.5 µM and > 1 µM.
The like results for `O=C(Nc1ccccc1)c1ccc(Nc2ncc(-c3cn[nH]c3)n3ccnc23)cc1` [Compound 41] were, in that order, > 1 µM and > 1 µM.
On to `O=C(NCCc1cccnc1)c1ccc(Nc2ncc(-c3cn[nH]c3)n3ccnc23)cc1` [Compound 93], for which the IC50 against MAPKAPK5 is 0.101 to 0.5 µM. Besides, in the test with MMP1 expression by SFs (Homo sapiens, Fibroblast), the EC50 was > 1 µM.
The like results for `NS(=O)(=O)c1ccc(Nc2ncc(-c3cn[nH]c3)n3ccnc23)cc1` [Compound 36] were, in that order, 0.101 to 0.5 µM and > 1 µM.
The matching figures for `Cn1cnnc1-c1ccc(Nc2ncc(-c3ccc(C(N)=O)cc3)n3ccnc23)cc1` [Compound 141]: > 1 µM and 0.501 to 1 µM.

The values above are taken from US8178530B2, “Imidazolopyrazine compounds useful for the treatment of degenerative and inflammatory diseases” (Janssen Pharmaceutica NV, priority 2006, dated 2012).
